{"source": "patent US9788567B2", "about": "“Ergothioneine-containing hens egg and method of preparing hens feed for producing same” (Origin Biotechnology Kabushikikaisha, priority 2013, dated 2017)", "key": {"[1]": {"settings": "in vivo", "description": "(§1) Thus, 14 ml of the obtained concentrate solution containing the ergothioneine were mixed in 120 g of the feed for hen used generally, it were mixed with the mixing stirrer 4, and the feed for the laying hen 41 was obtained. The feed for the laying hen 41 of 120 g per a hen was continuously fed to the laying hen for 36 days, dividing into four times a day.\nThe feeding and raising to the laying hen, and the measurement of the ergothioneine content in the egg yolk of the egg extracted in the meantime are performed in the same way as the example 2. In a fixed amount of the ergothioneine in the measurement of the ergothioneine content in the egg yolk of each egg here, the chromatogram of an internal standard substance and the ergothioneine are obtained from the egg yolk which preliminarily added the internal standard substance of the known amount by a high performance chromatography, the amount of the ergothioneine is measured from the ratio of the peak area of the ergothioneine to that of the internal standard substance.\nIn FIG. 4, one egg (a total of ten eggs) which each of the ten hens will lay on the 1 day is extracted for every lapsed days which start of the feed of the general feed for the hen, start of the feed of the laying hen, start of the feed of the general feed for the hen to stop of the feed of the laying hen and continue on the 71th day. The ergothioneine content in each egg yolk is measured, and the average value of the ergothioneine content in the egg yolk of these ten eggs is denoted by a graph."}, "[2]": {"settings": "in vivo", "remark": "listed apart in the source", "description": "as §1\nThe feeding and raising to the laying hen, and the measure of the ergothioneine content in the egg white of the egg extracted in the meantime are performed in the following ways. Numbering was carried out to ten hens, respectively, and it stored one hen in the raising gauge, and one egg (a total of ten eggs) which each hen will lay on the 1 day was extracted, numbering was carried out to each egg, and the ergothioneine content in the egg white of each egg was measured. In a fixed amount of the ergothioneine, the chromatogram of an internal standard substance and the ergothioneine are obtained from the egg white which preliminarily added the internal standard substance of the known amount by a high performance chromatography, the amount of the ergothioneine is measured from the ratio of the peak area of the ergothioneine to that of the internal standard substance.\nIn the measurement of the ergothioneine content in the egg white, the feed for the hen used generally (the general feed for the hen) was fed for 5 days (minus fifth day to minus first day), the feed of the laying hen which mixed the concentrate solution containing the ergothioneine continuously was fed for 36 days (0 day to 36th day), the feed of the laying hen was stopped after that, the general feed for the hen was started, and it carried out till 71th day. […] The ergothioneine content in each egg white is measured, and the average value of the ergothioneine content in the egg white of these ten eggs is denoted by a graph."}}, "data": [{"compound": "C[N+](C)(C)[C@@H](Cc1c[nH]c(=S)[nH]1)C(=O)[O-]", "note": "[ergothioneine]", "values": [{"measurement": "day on which ergothioneine content in the egg yolk returned to the initial value", "setting": "[1]", "result": 58, "unit": "days"}, {"measurement": "increase of ergothioneine content in the egg yolk over initial value", "setting": "[1]", "result": "about 8.5 times"}, {"measurement": "start of concentration of ergothioneine to the egg yolk", "setting": "[1]", "result": "second day"}, {"measurement": "day on which ergothioneine content in the egg white returned to the initial value", "setting": "[2]", "result": 71, "unit": "days"}, {"measurement": "increase of ergothioneine content in the egg white over initial value", "setting": "[2]", "result": "about 12.8 times"}, {"measurement": "start of concentration of ergothioneine to the egg white", "setting": "[2]", "result": "first day"}]}]}
